Marks after values point to notes of the source that are not given here.
Key:
[1] = tested on: Xenopus laevis embryos
Description: Morphological measurements of microcephaly and growth retardation.
Vitamin C treatment. Embryos at stage 13 (initial neural plate stage) were collected and divided into groups, each containing 15-20 embryos and incubated in a plastic petri dish containing MMR medium as stated above. Vitamin C, having a concentration of 100 μM, was added either concomitantly, 2 hours before, or 2 hours after the initiation of a 12-hour alcohol exposure. The tadpoles were fixed and measurements were made as stated above.

[2] = tested on: Xenopus laevis tadpole brain; experiment: Histological analysis of brain injury (coronal brain sections of tadpoles); details: tadpoles treated with alcohol
From the text: Histological analysis of brain injury. Embryos were fixed in 2% paraformaldehyde, dehydrated, embedded in paraffin. The embryos were sectioned coronally through the head and stained with hematoxylin and eosin.
The EF-1α transcript was detected as an internal control for equal RNA load.

CCO [Ethanol, ethanol]
dead ([1]; 0.6% EtOH for 12 hours from stage 13, 15 embryos): 2
Alive ([1]; Xenopus laevis, in vivo, 12 h): 13
Body length ([1]; Xenopus laevis, in vivo, 12 h): 9.25 ± 010^b mm
Eye distance ([1]; Xenopus laevis, in vivo, 12 h): 1.63 ± 005^b mm
size of the forebrain area vs control [2]: reduction in size of the forebrain area
